“And” between values parts separate entries of the source, which are not always exact repeats. Identical values can stand only once.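 Assay format: 96-well plates, 48-hour exposure. Abbreviation: GI50, concentration required for 50% inhibition of growth. TGI: concentration producing complete growth inhibition.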

Common to all, as to test: inhibition of tumour cell growth, NCI panel, 48 h
Experiment [1] concerns A498 renal.
The subject of experiment [2] is COLO 205 colon.
The subject of experiment [3] is EKVX NSCLC.
Experiment [4] has as its system MALME-3M melanoma.
The test system of experiment [5] is OVCAR-5 ovarian.
For experiment [6], the system named is OVCAR-8 ovarian.
Experiment [7] concerns RXF 393 renal.
Experiment [8] concerns SF-539 CNS.
Experiment [9] concerns SK-OV-3 ovarian.
Experiment [10] concerns UACC-62 melanoma.

With `Cc1ccc(C(=O)/C(=C\c2ccc([N+](=O)[O-])cc2)S(=O)Cc2ccc(Cl)cc2)cc1` (stereo not drawn), the GI50 in experiment [1] was 2.61 µM; in experiment [2], 1.88 µM; in [3], 1.88 µM; in experiment [4], 1.74 µM; in [5] it was 1.97 µM; in experiment [6], 2.05 µM. Also, the GI50 is 1.65 µM in experiment [7], 1.85 µM in experiment [8], 9.55 µM in experiment [9] and 1.65 µM in experiment [10]. In addition, the TGI in experiment [1] came to 7.63 µM; in experiment [2] it was 3.81 µM; in experiment [3], 4.02 µM; in experiment [4] it was 3.64 µM; in experiment [5] it was 3.91 µM; in experiment [6] it was 5.13 µM. The TGI in [7] came out at 3.1 µM; in [8] it was 3.37 µM; in experiment [9], 21.3 µM; in [10] it was 3.22 µM.
On to `CN(CC(=O)Nc1nc2ccccc2[nH]1)S(=O)(=O)c1ccc(Cl)cc1`, for which the GI50 in experiment [1] is more than 100 µM; in experiment [2] it was more than 100 µM; in experiment [3], 52.3 µM; in experiment [4], more than 100 µM; in [5], more than 100 µM; in experiment [6], 95.2 µM. Moreover, the GI50 is 13.4 µM in [7], more than 100 µM in experiment [8], more than 100 µM in experiment [9] and more than 100 µM in [10]. Besides, the TGI in experiment [1], in [2], in [3], in experiment [4], in experiment [5] and in [6] was more than 100 µM each time. In addition, the TGI was 55.6 µM in experiment [7], more than 100 µM in experiment [8], more than 100 µM in [9] and more than 100 µM in [10].
For `O=C(/C=C/C12c3ccccc3C(c3ccccc31)C1C(=O)NC(=O)C12)c1ccc(F)cc1` (stereo not drawn), the GI50 in [1] is 1.68 µM; in [2], 2.18 µM; in experiment [3], 1.7 µM; in [4], 1.97 µM; in [5], 1.92 µM; in [6], 1.86 µM. Moreover, the GI50 was 1.77 µM in experiment [7], 1.7 µM in [8], 2.79 µM in [9] and 1.68 µM in experiment [10]. The TGI in [1] worked out at 3.11 µM; in [2], 4.27 µM; in experiment [3], 4.45 µM; in experiment [4], 4.02 µM; in [5] it was 4.12 µM; in experiment [6], 4.84 µM. Also, the TGI amounted to 3.3 µM in experiment [7], 3.11 µM in experiment [8], 8.03 µM in [9] and 3.48 µM in [10].
Take `C/C(=N\NC(=S)SCc1ccccc1)c1ccccn1`: the TGI in experiment [1] is 8.73 µM; in experiment [2], 0.464 µM; in experiment [3], less than 0.01 µM; in [4], 7.4 µM; in experiment [5] it was 9.71 µM; in experiment [6] it was 0.326 µM. The TGI in experiment [7] was determined as 3.03 µM; in experiment [8], 2.49 µM; in experiment [10], 4.69 µM.
Turning to `C/C(=C\c1cc(C(F)(F)F)n(-c2ccc(N)cc2)n1)[C@@H]1C[C@@H]2O[C@]2(C)CCC[C@H](C)[C@H](O)[C@@H](C)C(=O)C(C)(C)[C@@H](O)CC(=O)O1`, the GI50 in experiment [1] was 0.0438 µM; in experiment [2] it was 0.0162 µM; in experiment [3], 0.23 µM; in experiment [4], 0.089 µM; in experiment [5] it was 0.0488 µM; in [6], 0.0557 µM. Besides, the GI50 in experiment [7] is 0.032 µM; in experiment [8], 0.025 µM; in [9] it was 0.0575 µM; in [10] it was 0.0245 µM. Moreover, the TGI in [2] was 0.582 µM; in [3], more than 11.1 µM; in experiment [4], more than 11.1 µM; in [5], more than 11.1 µM; in experiment [6], more than 11.1 µM; in [7], 0.379 µM. Besides, the TGI was 0.336 µM in [8], more than 11.1 µM in [9] and more than 6.85 µM in experiment [10].
Consider `N#CC1(C#N)C2C=CC(c3coc4cccc2c34)C1(C#N)C#N` (stereo not drawn), for which the TGI is 34.6 µM in [1]; 4.4 µM in [2]; 33 µM in [3]; 18.8 µM in experiment [4]; 30.8 µM in [5]; 10.4 µM in experiment [6]. For the same compound, the TGI stood at 9.66 µM in experiment [7], 35.2 µM in experiment [8], 31.7 µM in [9] and 24.4 µM in [10].
Turning to `O=C(CCn1[nH]c(=O)c(Cl)c(Cl)c1=O)NNC(=O)C[n+]1ccccc1`, the TGI in experiment [1], in experiment [2], in [3], in experiment [4], in [5] and in experiment [6] was more than 100 µM in each case. The TGI in [7], in experiment [8], in [9] and in [10] was more than 100 µM throughout.
In the case of `O=C1C2CCN(CC2)C1(CO)CO`, the TGI in [1] is more than 79.7 µM; in [2] it was 43 µM; in [3] it was 99.4 µM; in experiment [4], 36.6 µM; in experiment [5], 45.9 µM; in experiment [6], 74.7 µM. The TGI is 52 µM in [7], more than 78.1 µM in experiment [8], more than 100 µM in experiment [9] and 42.1 µM in experiment [10].
As to `COc1cc2nccc(Oc3ccc(NC(=O)Nc4cc(C)on4)c(Cl)c3)c2cc1OC`, the GI50 in experiment [1] is 0.532 µM and 1.46 µM; in [2], 3.22 µM and 3.04 µM; in [3], 3.02 µM and 4.69 µM; in experiment [4], 1.92 µM and 6.17 µM; in [5] it was 4.15 µM and 4.08 µM; in experiment [6] it was 3.6 µM and 4.67 µM. In addition, the GI50 was 1.96 µM and 1.79 µM in [7]; 1.49 µM and 1.41 µM in experiment [8]; 4.16 µM and 3.57 µM in experiment [9]; 2.12 µM and 1.82 µM in experiment [10]. In addition, the TGI in experiment [1] was 2.67 µM and 4.6 µM; in [2], 32.7 µM and > 10 µM; in experiment [3] it was 49.6 µM and > 10 µM; in [4], 8.17 µM and > 10 µM; in experiment [5] it was 42.9 µM and > 10 µM; in experiment [6], more than 100 µM. Also, the TGI was 6.2 µM and 8.18 µM in experiment [7]; 4.05 µM and 4.74 µM in experiment [8]; 26.5 µM and > 10 µM in experiment [9]; 16.4 µM and > 10 µM in [10].

The values are drawn from PubChem BioAssay (NCI).
